Test results from patent US6376497B1, “Antifungal azole derivatives having a fluorinated vinyl group and process for preparing same” (Korea Research Institute of Chemical Technology, priority 1999, dated 2002).

Legend:
Experiment in all cases: In vitro antifungal activity, microbroth dilution MIC
Assay type in all cases: cell-based
Details in all cases: RPMI-1640, 35° C., 4 to 48 hours, no growth observed
[1] = test system: Aspergillus furnigatus B. 19119
Procedure, shortened: (§1)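 Broth microdilution adapted from NCCLS M27, in RPMI-1640 with 0.165 M MOPS, pH 7.0. Yeast or mould inoculum at 2×10^3 CFU/ml was mixed 1:1 with DMSO-derived compound solutions (200 to 0.10 μg/ml before mixing) and incubated at 35 °C for 4 to 48 h. MIC was the concentration showing no growth.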

[2] = test system: Aspergillus niger A. 16404
Procedure, shortened: as §1

[3] = test system: Candida albicans A. 10231
Procedure, shortened: as §1

Candida albicans C1-2 = test system: Candida albicans C1-2
Procedure, shortened: as §1

[4] = test system: Candida albicans IFO. 1385
Procedure, shortened: as §1

Candida krusei K. 11655 = test system: Candida krusei K. 11655
Procedure, shortened: as §1

[5] = test system: Candida parapsitosis A. 7330
Procedure, shortened: as §1

[6] = test system: Candida pseudotropicalis K. 11658
Procedure, shortened: as §1

[7] = test system: Candida tropicalis A. 13803
Procedure, shortened: as §1

[8] = test system: Cryptococcus neoformans A. 34144
Procedure, shortened: as §1

[9] = test system: Cryptococcus neoformans B. 42419
Procedure, shortened: as §1

[10] = test system: Cryptococcus neoformans IFM. 40092
Procedure, shortened: as §1

[11] = test system: Torulopsis glabrata B. 16205
Procedure, shortened: as §1

[12] = test system: Trichophyton mentagrophytes A. 9129
Procedure, shortened: as §1

[13] = test system: Trichophyton mentagrophytes B. 32663
Procedure, shortened: as §1

Structure (SMILES) | Minimal inhibitory concentration(MIC), A furnigatus B. 19119 [1] [µg/mL] | Minimal inhibitory concentration(MIC), A. niger A. 16404 [2] [µg/mL] | Minimal inhibitory concentration(MIC), C. albicans A. 10231 [3] [µg/mL] | Minimal inhibitory concentration(MIC), C. albicans C1-2 (Candida albicans C1-2) [µg/mL] | Minimal inhibitory concentration(MIC), C. albicans IFO. 1385 [4] [µg/mL] | Minimal inhibitory concentration(MIC), C. krusei K. 11655 (Candida krusei K. 11655) [µg/mL] | Minimal inhibitory concentration(MIC), C. parapsitosis A. 7330 [5] [µg/mL] | Minimal inhibitory concentration(MIC), C. pseudotropicalis K. 11658 [6] [µg/mL] | Minimal inhibitory concentration(MIC), C. tropicalis A. 13803 [7] [µg/mL] | Minimal inhibitory concentration(MIC), Cry. neoformans A. 34144 [8] [µg/mL] | Minimal inhibitory concentration(MIC), Cry. neoformans B. 42419 [9] [µg/mL] | Minimal inhibitory concentration(MIC), Cry. neoformans IFM. 40092 [10] [µg/mL] | Minimal inhibitory concentration(MIC), T. glabrata B. 16205 [11] [µg/mL] | Minimal inhibitory concentration(MIC), T. mentagrophytes A. 9129 [12] [µg/mL] | Minimal inhibitory concentration(MIC), T. mentagrophytes B. 32663 [13] [µg/mL]
FC(OCC1COC(Cn2cncn2)(c2ccc(Cl)cc2Cl)O1)=C(c1ccc(Cl)cc1)C(F)(F)F (mixture of isomers) [Ex. 86] | >100 | >100 | 100 | 100 | 12.5 | >100 | >100 | >100 | >100 | 1.56 | 1.56 | 0.78 | >100 | >100 | >100
FC(OCC1COC(Cn2cncn2)(c2ccc(Cl)cc2Cl)O1)=C(c1ccc(F)cc1)C(F)(F)F (mixture of isomers) [Ex. 87] | >100 | >100 | >100 | >100 | 6.25 | >100 | >100 | >100 | >100 | 1.56 | 1.56 | 0.78 | >100 | >100 | >100
FC(=Cc1ccccc1)Oc1ccc(OCC2COC(Cn3ccnc3)(c3ccc(Cl)cc3Cl)O2)cc1 (mixture of isomers) [Ex. 88] | >100 | 100 | 100 | 100 | 6.25 | >100 | >100 | >100 | >100 | 1.56 | 1.56 | 0.78 | >100 | 100 | 100
Cc1ccc(C=C(F)Oc2ccc(OCC3COC(Cn4ccnc4)(c4ccc(Cl)cc4Cl)O3)cc2)cc1 (mixture of isomers) [Ex. 89] | 100 | >100 | 100 | 100 | 25.0 | 12.5 | 12.5 | 6.25 | 100 | 3.13 | 1.56 | 0.78 | 50.0 | 6.25 | 6.25
